Consider one substance from patent US7026359B1, “Utilization of a highly fluorinated oligomeric alkane in ophthalmology” (Bausch & Lomb Incorporated, priority 1999, dated 2006).

What all share (type): physicochemical
Data set [1] is described as follows: Critical solubility temperature in hexane (CST), qualitative measure of lipophilicity / tissue penetration. An excerpt: The tissue penetration capacity can be described qualitatively by the critical solubility temperature in hexane (abbreviation: CST). This qualitative measure of lipophilicity is at the same time a measure of the capacity for tissue penetration.

A short description of data set [2]: Density.
The nature of data set [3]: Refractive index.
The nature of data set [4]: Surface tension.
Data set [5] can be described thus: Viscosity.
A short description of data set [6]: Sterilization in an autoclave (stability). The conditions noted are these: 121° C. in an autoclave. As to the method:
The highly fluorinated oligomer (C6F13CHCH2)3 is dissolved in fluorocarbons and purified via an Al2O3 chromatographic column. After removal of the solvent the last traces of volatile contaminants are removed in a vacuum. The highly fluorinated trimer according to nuclear spin resonance, infrared and mass spectroscopic tests, a uniform and highly pure substance with a molecular weight of 1055. Charging with an active agent takes place under mild conditions via a solvent that is not miscible with the trimer after distribution to saturation concentration. β-Carotene as active agent changes the color of the oligomer slightly. […] The nuclear magnetic data of this substance are as follows: […]

In the case of (C6F13CHCH2)3 [Example 1], the “Critical solubility temperature in n-hexane, CST” value in data set [1] was 35 °C. In data set [2], the Density came out at 1.661 g/mL. The “Refractive index n^D20” value in data set [3] worked out at 1.3351. In data set [4], this substance came in with a Surface tension of 19.5 mN/m. Further, the Viscosity in data set [5] came out at 220 mPa·sec. For the same substance, in data set [6], the Stability on sterilization entry was “without the physical or chemical properties of the substances being changed”.
